# Results taken from EP4667463A1, “DOMIDE MOLECULAR GLUE DERIVATIVE AND USE THEREOF” (CSPC Megalith Biopharmaceutical Co., Ltd., priority 2023, dated 2024).
# Tested on: HL-60
# Test: In vitro anti-tumor activity of molecular glue compounds, CellTiter-Lumi cell viability assay
# Type: cell-based
# Conditions: Homo sapiens; HL-60 cells, 96 h incubation; read-out: Cell inhibitory activity (IC50 values) HL-60
# Description: (§1) Different tumor cells were all commercially available and used for evaluating the anti-tumor inhibitory activity of the compounds of the present disclosure. Various tumor cells were cultured until the cell confluency reached 80%-90%, with cell viability above 90% as determined by trypan blue exclusion. Then, the cells were plated. Specifically, after cell density optimization, 100 µL of each of the cell suspensions of HL-60 and SK-BR-3 cells (cell density: 3000 cells/well), Romas cells (cell density: 6000 cells/well), NCI-H929 cells (cell density: 4000 cells/well), and NCI-H82 cells (cell density: 5000 cells/well) was plated in a BeyoGold™ ultra-low attachment black clear-bottom 96-well plate (Cat. No.: FULA965-24pcs), and the plate was incubated overnight. The next day, after the adherent cells were adhered to the wall and suspension cells requiring aggregation were aggregated, 50 µL of culture medium was aspirated from each well of the 96-well plate. Then, the compounds diluted with the corresponding culture media were added. Specifically, the compounds were serially diluted at a 5-fold gradient starting from the highest concentration of 1 µM, with a final DMSO concentration of 1%o, and the test compounds were then added to the cell culture plate. The plate was incubated in an incubator at 37 °C with 5% carbon dioxide for 96 h. Before measurement, the CellTiter-Lumi™ luminescent cell viability assay reagent was equilibrated to room temperature in the dark. Then, 50 µL of the CellTiter-Lumi™ (Cat. No.: C0065XL) cell viability assay reagent was added to each well of the 96-well plate. The plate was shaken in the dark on a shaker at 300 rpm for 10 min to ensure complete cell lysis. After the reaction was completed, the luminescence was measured on a multi-mode microplate reader. The cell inhibition rate was determined according to the luminescence. Then, a cell viability curve was generated by Graphpad Prism 8.0, and the IC50 values were calculated. The compounds of the present disclosure were tested for activity by the method described above. Table 1. Cell inhibitory activity (IC50 values)
row,Structure (SMILES),IC50 [nM]
1,CNCC1(COCCc2ccc(NC(=O)NCc3ccc4c(c3)CN(C3CCC(=O)NC3=O)C4=O)cc2Cl)CCCCC1 (stereo not shown) [Compound B45],< 10
2,O=C1CCC(N2Cc3cc(CNC(=O)Nc4ccc(CCOCC5CCCNC5)c(Cl)c4)ccc3C2=O)C(=O)N1 (stereo not shown) [Compound B14],< 10
3,O=C1CCC(N2Cc3cc(CNC(=O)Nc4ccc(COCC5CCCNC5)c(Cl)c4)ccc3C2=O)C(=O)N1 (stereo not shown) [Compound B8],10 to 50
4,O=C1CCC(N2Cc3cc(CNC(=O)Nc4ccc(CCCOC5CNC5)c(Cl)c4)ccc3C2=O)C(=O)N1 (stereo not shown) [Compound B63],< 10
5,CC1(OCCCc2ccc(NC(=O)NCc3ccc4c(c3)CN(C3CCC(=O)NC3=O)C4=O)cc2Cl)CCNCC1 (stereo not shown) [Compound B66],< 10
6,O=C1CCC(N2Cc3cc(CNC(=O)Nc4ccc(CCCOC5CC6(CNC6)C5)c(Cl)c4)ccc3C2=O)C(=O)N1 (stereo not shown) [Compound B68],< 10
7,CNCC1CCCC(OCCc2ccc(NC(=O)NCc3ccc4c(c3)CN(C3CCC(=O)NC3=O)C4=O)cc2Cl)C1 (stereo not shown) [Compound B54],< 10

# Tested on: NCI-H82
# Test: as above
# Type: cell-based
# Conditions: Homo sapiens; NCI-H82 cells, 96 h incubation; read-out: Cell inhibitory activity (IC50 values) NCI-H82
# Description: as §1
row,Structure (SMILES),IC50 [nM]
1,CNCC1(COCCc2ccc(NC(=O)NCc3ccc4c(c3)CN(C3CCC(=O)NC3=O)C4=O)cc2Cl)CCCCC1 (stereo not shown) [Compound B45],10 to 50
2,O=C1CCC(N2Cc3cc(CNC(=O)Nc4ccc(CCOCC5CCCNC5)c(Cl)c4)ccc3C2=O)C(=O)N1 (stereo not shown) [Compound B14],10 to 50
3,O=C1CCC(N2Cc3cc(CNC(=O)Nc4ccc(COCC5CCCNC5)c(Cl)c4)ccc3C2=O)C(=O)N1 (stereo not shown) [Compound B8],10 to 50
4,O=C1CCC(N2Cc3cc(CNC(=O)Nc4ccc(CCCOC5CNC5)c(Cl)c4)ccc3C2=O)C(=O)N1 (stereo not shown) [Compound B63],10 to 50
5,CC1(OCCCc2ccc(NC(=O)NCc3ccc4c(c3)CN(C3CCC(=O)NC3=O)C4=O)cc2Cl)CCNCC1 (stereo not shown) [Compound B66],10 to 50
6,O=C1CCC(N2Cc3cc(CNC(=O)Nc4ccc(CCCOC5CC6(CNC6)C5)c(Cl)c4)ccc3C2=O)C(=O)N1 (stereo not shown) [Compound B68],10 to 50
7,CNCC1CCCC(OCCc2ccc(NC(=O)NCc3ccc4c(c3)CN(C3CCC(=O)NC3=O)C4=O)cc2Cl)C1 (stereo not shown) [Compound B54],10 to 50

# Tested on: NCI-H929
# Test: as above
# Type: cell-based
# Conditions: Homo sapiens; NCI-H929 cells, 96 h incubation; read-out: Cell inhibitory activity (IC50 values) NCI-H929
# Description: as §1
row,Structure (SMILES),IC50 [nM]
1,CNCC1(COCCc2ccc(NC(=O)NCc3ccc4c(c3)CN(C3CCC(=O)NC3=O)C4=O)cc2Cl)CCCCC1 (stereo not shown) [Compound B45],< 10
2,O=C1CCC(N2Cc3cc(CNC(=O)Nc4ccc(CCOCC5CCCNC5)c(Cl)c4)ccc3C2=O)C(=O)N1 (stereo not shown) [Compound B14],< 10
3,O=C1CCC(N2Cc3cc(CNC(=O)Nc4ccc(COCC5CCCNC5)c(Cl)c4)ccc3C2=O)C(=O)N1 (stereo not shown) [Compound B8],10 to 50
4,O=C1CCC(N2Cc3cc(CNC(=O)Nc4ccc(CCCOC5CNC5)c(Cl)c4)ccc3C2=O)C(=O)N1 (stereo not shown) [Compound B63],< 10
5,CC1(OCCCc2ccc(NC(=O)NCc3ccc4c(c3)CN(C3CCC(=O)NC3=O)C4=O)cc2Cl)CCNCC1 (stereo not shown) [Compound B66],< 10
6,O=C1CCC(N2Cc3cc(CNC(=O)Nc4ccc(CCCOC5CC6(CNC6)C5)c(Cl)c4)ccc3C2=O)C(=O)N1 (stereo not shown) [Compound B68],< 10
7,CNCC1CCCC(OCCc2ccc(NC(=O)NCc3ccc4c(c3)CN(C3CCC(=O)NC3=O)C4=O)cc2Cl)C1 (stereo not shown) [Compound B54],< 10

# Tested on: Romas
# Test: as above
# Type: cell-based
# Conditions: Romas cells, 96 h incubation; read-out: Cell inhibitory activity (IC50 values) Romas
# Description: as §1
row,Structure (SMILES),IC50 [nM]
1,CNCC1(COCCc2ccc(NC(=O)NCc3ccc4c(c3)CN(C3CCC(=O)NC3=O)C4=O)cc2Cl)CCCCC1 (stereo not shown) [Compound B45],< 10
2,O=C1CCC(N2Cc3cc(CNC(=O)Nc4ccc(CCOCC5CCCNC5)c(Cl)c4)ccc3C2=O)C(=O)N1 (stereo not shown) [Compound B14],< 10
3,O=C1CCC(N2Cc3cc(CNC(=O)Nc4ccc(COCC5CCCNC5)c(Cl)c4)ccc3C2=O)C(=O)N1 (stereo not shown) [Compound B8],10 to 50
4,O=C1CCC(N2Cc3cc(CNC(=O)Nc4ccc(CCCOC5CNC5)c(Cl)c4)ccc3C2=O)C(=O)N1 (stereo not shown) [Compound B63],10 to 50
5,CC1(OCCCc2ccc(NC(=O)NCc3ccc4c(c3)CN(C3CCC(=O)NC3=O)C4=O)cc2Cl)CCNCC1 (stereo not shown) [Compound B66],< 10
6,O=C1CCC(N2Cc3cc(CNC(=O)Nc4ccc(CCCOC5CC6(CNC6)C5)c(Cl)c4)ccc3C2=O)C(=O)N1 (stereo not shown) [Compound B68],< 10
7,CNCC1CCCC(OCCc2ccc(NC(=O)NCc3ccc4c(c3)CN(C3CCC(=O)NC3=O)C4=O)cc2Cl)C1 (stereo not shown) [Compound B54],10 to 50

# Tested on: SK-BR-3
# Test: as above
# Type: cell-based
# Conditions: Homo sapiens; SK-BR-3 cells, 96 h incubation; read-out: Cell inhibitory activity (IC50 values) SK-BR-3
# Description: as §1
row,Structure (SMILES),IC50 [nM]
1,CNCC1(COCCc2ccc(NC(=O)NCc3ccc4c(c3)CN(C3CCC(=O)NC3=O)C4=O)cc2Cl)CCCCC1 (stereo not shown) [Compound B45],< 10
2,O=C1CCC(N2Cc3cc(CNC(=O)Nc4ccc(CCOCC5CCCNC5)c(Cl)c4)ccc3C2=O)C(=O)N1 (stereo not shown) [Compound B14],10 to 50
3,O=C1CCC(N2Cc3cc(CNC(=O)Nc4ccc(COCC5CCCNC5)c(Cl)c4)ccc3C2=O)C(=O)N1 (stereo not shown) [Compound B8],10 to 50
4,O=C1CCC(N2Cc3cc(CNC(=O)Nc4ccc(CCCOC5CNC5)c(Cl)c4)ccc3C2=O)C(=O)N1 (stereo not shown) [Compound B63],< 10
5,CC1(OCCCc2ccc(NC(=O)NCc3ccc4c(c3)CN(C3CCC(=O)NC3=O)C4=O)cc2Cl)CCNCC1 (stereo not shown) [Compound B66],< 10
6,O=C1CCC(N2Cc3cc(CNC(=O)Nc4ccc(CCCOC5CC6(CNC6)C5)c(Cl)c4)ccc3C2=O)C(=O)N1 (stereo not shown) [Compound B68],< 10
7,CNCC1CCCC(OCCc2ccc(NC(=O)NCc3ccc4c(c3)CN(C3CCC(=O)NC3=O)C4=O)cc2Cl)C1 (stereo not shown) [Compound B54],10 to 50

# Tested on: not listed separately
# Test: in vitro
# Conditions: human, microsomes
# Description: (§2) The final concentration of the substrate in the incubation system was 1 µM, and the incubation time was 60 min. Sampling was performed at 0 min, 5 min, 15 min, 30 min, and 60 min. The reaction was stopped with glacial acetonitrile containing an internal standard (testosterone-d3 at a concentration of 10 ng/mL). Verapamil was used as a positive control. […] The natural logarithm of the remaining percentage was subjected to linear fitting with time to determine the elimination rate constant (k).
Structure (SMILES),CLint scaled at 1 µM [mL/min/kg],"CLint scaled at 1 h, 1 µM [mL/min/kg]",half-life at 1 µM [days]
O=C1CCC(N2Cc3cc(CNC(=O)Nc4ccc(CCCOC5CNC5)c(Cl)c4)ccc3C2=O)C(=O)N1 (stereo not shown) [Compound B63],0.19,0.189,6.35

# Tested on: not listed separately
# Test: in vitro
# Conditions: monkey, microsomes
# Description: as §2
Structure (SMILES),CLint scaled at 1 µM [mL/min/kg],"CLint scaled at 1 h, 1 µM [mL/min/kg]",half-life at 1 µM [days]
O=C1CCC(N2Cc3cc(CNC(=O)Nc4ccc(CCCOC5CNC5)c(Cl)c4)ccc3C2=O)C(=O)N1 (stereo not shown) [Compound B63],0.257,0.255,5.48

# Tested on: not listed separately
# Test: in vitro
# Conditions: rat, microsomes
# Description: as §2
Structure (SMILES),CLint scaled at 1 µM [mL/min/kg],"CLint scaled at 1 h, 1 µM [mL/min/kg]",half-life at 1 µM [min]
O=C1CCC(N2Cc3cc(CNC(=O)Nc4ccc(CCCOC5CNC5)c(Cl)c4)ccc3C2=O)C(=O)N1 (stereo not shown) [Compound B63],1.39,1.35,1790

# Tested on: not listed separately
# Test: Metabolic stability in liver microsomes
# Conditions: Human liver microsomes, after 60 min of incubation
# Description: as §2
row,Structure (SMILES),Parent drug remaining % [%]
1,O=C1CCC(N2Cc3cc(CNC(=O)Nc4ccc(CCCOC5CNC5)c(Cl)c4)ccc3C2=O)C(=O)N1 (stereo not shown) [Compound B63],98.8

# Tested on: not listed separately
# Test: Metabolic stability in liver microsomes
# Conditions: Monkey liver microsomes, after 60 min of incubation
# Description: as §2
row,Structure (SMILES),Parent drug remaining % [%]
1,O=C1CCC(N2Cc3cc(CNC(=O)Nc4ccc(CCCOC5CNC5)c(Cl)c4)ccc3C2=O)C(=O)N1 (stereo not shown) [Compound B63],101

# Tested on: not listed separately
# Test: Metabolic stability in liver microsomes
# Conditions: Dog liver microsomes, after 60 min of incubation
# Description: as §2
row,Structure (SMILES),Parent drug remaining % [%]
1,O=C1CCC(N2Cc3cc(CNC(=O)Nc4ccc(CCCOC5CNC5)c(Cl)c4)ccc3C2=O)C(=O)N1 (stereo not shown) [Compound B63],103

# Tested on: not listed separately
# Test: Metabolic stability in liver microsomes
# Conditions: Rat liver microsomes, after 60 min of incubation
# Description: as §2
row,Structure (SMILES),Parent drug remaining % [%]
1,O=C1CCC(N2Cc3cc(CNC(=O)Nc4ccc(CCCOC5CNC5)c(Cl)c4)ccc3C2=O)C(=O)N1 (stereo not shown) [Compound B63],94.9

# Tested on: not listed separately
# Test: Metabolic stability in liver microsomes
# Conditions: Mouse liver microsomes, after 60 min of incubation
# Description: as §2
row,Structure (SMILES),Parent drug remaining % [%]
1,O=C1CCC(N2Cc3cc(CNC(=O)Nc4ccc(CCCOC5CNC5)c(Cl)c4)ccc3C2=O)C(=O)N1 (stereo not shown) [Compound B63],102
